Reference: article PMC9928118, “Funneling modulatory peptide design with generative models: Discovery and characterization of disruptors of calcineurin protein-protein interactions” (PLOS Computational Biology, 2023)

How the values were obtained:
GST-tagged Cn [1] = assay: PEPperPRINT peptide microarray binding assay with GST-tagged Cn; settings: max over the duplicate spots (Location on chip)
GST-tagged Cn [2] = assay: as above; settings: GST-tagged Cn, mean over the duplicate spots (Location on chip)
Procedure, shortened: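 Qualitative binding: peptides printed on a PEPperPRINT microarray were incubated overnight at 4 °C with 1 mg/ml GST-tagged Cn, then detected with Alexa-Fluor 647 anti-GST antibody. Log fluorescence was baseline-corrected, averaged over duplicate spots, Z-normalized and averaged across five repeats.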

Chip Fluorescence (max) (GST-tagged Cn [1])	Chip Fluorescence (mean) (GST-tagged Cn [2])	Sequence
2.3229	-0.4845	LNDEIPEVRLNIISAL [SeqRBMlowT_4170]
2.434	1.1019	ESRYRRFRQFQAPKVD [Seqshuffled_9523]
2.355	1.018	TFWTNPQYKITLEDPD [SeqRBMlowT_219]
1.911	0.7325	KADYTISLILHYDAIE [Seqshuffled_9660]
2.16	-0.2871	TFWTNPQFVVSLPEED [SeqRBMlowT_8537]
2.523	0.1039	RTYINPFMLFEDMGSR [SeqRBM_7588]
2.128	-0.2767	RNPGSPVLVLEGHSAA [SeqYPL247C_Zygosaccharomyces_parabailii]
2.2	0.06577	AEVGIVRFSRHPVAQD [Seqshuffled_9961]
2.045	0.511	KKMSPPCISVHPPDED [SeqRBMlowT_7695]
2.196	0.8441	RTYINPFMQFNRGGRK [SeqRBM_3856]
2.529	-0.1981	KKMAPPAINIDPAPTN [SeqRBMlowT_321]
2.243	1.113	RNPESPVLELEGHSSP [SeqRBMlowT_6390]
2.217	-0.01901	SSSAAPEIVVSKPEHN [SeqRBMlowT_9785]
2.106	0.4296	STSSLPTFSFSSPLSS [SeqRBMlowT_2357]
2.283	1.192	KNARGPLIIIHPMEED [SeqRBM_1913]
2.119	0.6521	RAYINPFMQFTFDSNK [SeqRBMlowT_4738]
2.387	0.7438	TFWTNPQFRITLEEPD [SeqRBMlowT_11]
1.896	1.243	RTYINPFMQFTYDGRR [SeqRBMlowT_4071]
2.0958	0.4904	TFWSNPQYRITLEDPD [SeqRBMlowT_78]
2.018	0.833	GNKEFSPLNVEGLSGN [Seqshuffled_9463]

Chip Fluorescence (max) (GST-tagged Cn [1])	Chip Fluorescence (mean) (GST-tagged Cn [2])	Sequence
1.968	-0.4808	LSSSNPEITVTPAELD [SeqRBMlowT_6234]
2.496	0.9732	SSLYENALGIESFTLS [SeqRBMlowT_2888]
2.125	-0.7518	KKMSPPCITITPAPGA [SeqRBMlowT_7625]
2.572	1.296	TFWTNPQITVTLAEDD [SeqRBMlowT_3250]
2.049	0.4694	FTMKFAWALPQCYVHC [Seqrandom_9941]
2.401	0.2486	SDVAQQCLPSQHWSCW [Seqrandom_9997]
2.523	0.6141	GTDLRQQTAAQPNDGA [Seqshuffled_4362]
2.3848	-0.254	PNKICGQRSFDGEHQN [Seqshuffled_9648]
2.0782	1.363	TFWTNPQYKITLEDED [SeqRBMlowT_7336]
2.02	0.8271	KAYMNPFMQFIDGGRK [SeqRBMlowT_6686]
2.207	0.1767	TFWMNPQYRITLEEPD [SeqRBMlowT_2265]
1.993	0.3576	FQTDAPTIPIDQAPIC [SeqRBM_9788]
2.2877	0.1659	RSKFIPKLSLQSPVHH [SeqRBMlowT_1791]
2.523	-0.2851	GGPGTPSRQGQTAAPS [SeqRBM_5534]
2.355	0.2344	KELANLRVTPPDNGTL [SeqRBM_2710]
2.341	0.5369	YTQIFPKCAMTIIKRK [Seqrandom_9966]
2.512	1.346	RAYKNPFMQFDLDSSL [SeqRBM_8076]
2.534	-0.2036	TFWTNPQYRITLEDPD [SeqRBMlowT_604]
2.466	0.6593	TFWTNPQFKFRLEDPD [SeqRBMlowT_7471]

Continued, sequence first:

Sequence	Chip Fluorescence (max) (GST-tagged Cn [1])	Chip Fluorescence (mean) (GST-tagged Cn [2])
RAYMNPSVCFTDGGAR [SeqRBM_6787]	1.921	0.3113
STPLPQGAPISPNTLA [Seqshuffled_9522]	2.383	-0.4537
GNDDCPEVVVHPPEED [SeqRBMlowT_7697]	2.095	0.9366
TFMMNPQYRLYKSVSP [SeqRBM_6553]	2.027	0.3935
TFWTNPQYRIKLEEVD [SeqRBMlowT_627]	1.99	-1.639
PMKTRGLYGWPPCAKW [Seqrandom_5226]	2.284	0.996
LRDEVPEVRLNIISDL [SeqRBM_180]	2.2011	-0.2367
RQPGQALLELRGHSAS [SeqRBMlowT_7735]	2.013	0.19
NNLAINDVTAGDRGCY [SeqRBM_1373]	2.1787	1.818
GFETTPSIVVHVCEED [SeqRBMlowT_1939]	2.448	0.4497
QWSLGVGIVITVTETM [SeqRBM_1755]	2.2853	0.7956
RNPESPVLELEGHSAS [SeqRBMlowT_6180]	1.97	0.5231
TFNNNPQATVRRTDID [SeqRBM_1961]	1.877	0.6511
HIIIVWAVSEVKYVQL [Seqrandom_9992]	1.914	0.6897
TFWTNPQFRIKLEEPD [SeqRBMlowT_8]	2.218	-0.1106
LLDNVPAVHVHDMGGH [SeqRBM_9035]	1.904	0.6608
GGPSTPGRQNNPLAPS [SeqRTS1_Zymoseptoria_tritici]	2.314	-0.03327
ASSANPEITVTPAELP [SeqRBMlowT_4424]	2.528	0.4111
SSMAQPAINIDFAPTN [SeqRBMlowT_2450]	2.328	-0.1624
ADEATPSIVVHVCELP [SeqRBMlowT_118]	2.544	0.5506
KAYMCPYGSFTYGGRR [SeqRBM_3412]	2.568	0.9697

Sequence	Chip Fluorescence (max) (GST-tagged Cn [1])	Chip Fluorescence (mean) (GST-tagged Cn [2])
PGQMQPSINVMAEKNP [SeqRBM_977]	1.973	-0.5544
RQPGSPVLELSGHSAN [SeqRBMlowT_5862]	2.053	0.5615
KSKRIPKLSVVSPVHH [SeqRBM_6422]	2.115	0.728
PSLYENALGMESFTIS [SeqRBMlowT_2807]	2.474	-0.3855
PTNGIPEMQRNSAKSA [Seqshuffled_9538]	2.2337	0.992
HCRFEWPFGFSMIRYP [Seqrandom_9994]	2.458	-1.666
TFWANPQITITLAELD [SeqRBMlowT_7358]	2.261	0.7622
ADETQPGIVVHVCELP [SeqRBMlowT_352]	2.166	0.6468
YCQWSNRATQIGHKPT [Seqrandom_9979]	2.027	-0.2818
KAYMCPFMQFIDGGRR [SeqRBMlowT_502]	2.385	-0.1535
TFWSNPQFKITLEEPD [SeqRBMlowT_5528]	2.1472	0.877
HPYMGPKIQFHSGGRK [SeqRBM_457]	2.294	0.3342
EPYVAFFYQFSHDPKS [Seqshuffled_9939]	2.266	-0.878
TFWTNPQFKVSLEEPD [SeqRBMlowT_97]	2.43	0.2931
TFWTNPQYVITLPEED [SeqRBMlowT_4660]	1.913	0.3942
ADEAVPLIDIAMAEYP [SeqRBM_3950]	2.42	0.7456
WPWCRHPKKRNWLNWH [Seqrandom_9939]	2.4643	1.3152
RAYDNPVFSFTFDSKG [SeqRBM_7566]	2.445	0.4256
DCIGFCSVPVMYAPNH [Seqrandom_1239]	2.175	-0.3019
KAYMCPYMQFIEGGRR [SeqSFB3_Ictalurus_punctatus]	2.501	1.763
